Results from ChEMBL document CHEMBL4507295 (2021).

Columns and labels:
[1] = test system: Tyrosine-protein kinase ABL1 (Homo sapiens), P00519 [T315I]; conditions: Compound concentration 1000.0 nM
[2] = target: Tyrosine-protein kinase ABL1 (Homo sapiens) (UniProt P00519); conditions: Compound concentration 1000.0 nM
[3] = target: Bone morphogenetic protein receptor type-1B (Homo sapiens) (UniProt O00238); conditions: Compound concentration 1000.0 nM
[4] = target: Mitotic checkpoint serine/threonine-protein kinase BUB1 (Homo sapiens) (UniProt O43683); conditions: Compound concentration 1000.0 nM
[5] = target: Calcium/calmodulin-dependent protein kinase type 1D (Homo sapiens) (UniProt Q8IU85); conditions: Compound concentration 1000.0 nM
[6] = target: Peripheral plasma membrane protein CASK (Homo sapiens) (UniProt O14936); conditions: Compound concentration 1000.0 nM
[7] = target: Cyclin-dependent kinase 8 (Homo sapiens) (UniProt P49336); conditions: Compound concentration 1000.0 nM
[8] = target: Citron Rho-interacting kinase (Homo sapiens) (UniProt O14578); conditions: Compound concentration 1000.0 nM
[9] = target: Mitogen-activated protein kinase kinase kinase 12 (Homo sapiens) (UniProt Q12852); conditions: Compound concentration 1000.0 nM
Sequence of Mitogen-activated protein kinase kinase kinase 12 (Homo sapiens) (Q12852 whole entry): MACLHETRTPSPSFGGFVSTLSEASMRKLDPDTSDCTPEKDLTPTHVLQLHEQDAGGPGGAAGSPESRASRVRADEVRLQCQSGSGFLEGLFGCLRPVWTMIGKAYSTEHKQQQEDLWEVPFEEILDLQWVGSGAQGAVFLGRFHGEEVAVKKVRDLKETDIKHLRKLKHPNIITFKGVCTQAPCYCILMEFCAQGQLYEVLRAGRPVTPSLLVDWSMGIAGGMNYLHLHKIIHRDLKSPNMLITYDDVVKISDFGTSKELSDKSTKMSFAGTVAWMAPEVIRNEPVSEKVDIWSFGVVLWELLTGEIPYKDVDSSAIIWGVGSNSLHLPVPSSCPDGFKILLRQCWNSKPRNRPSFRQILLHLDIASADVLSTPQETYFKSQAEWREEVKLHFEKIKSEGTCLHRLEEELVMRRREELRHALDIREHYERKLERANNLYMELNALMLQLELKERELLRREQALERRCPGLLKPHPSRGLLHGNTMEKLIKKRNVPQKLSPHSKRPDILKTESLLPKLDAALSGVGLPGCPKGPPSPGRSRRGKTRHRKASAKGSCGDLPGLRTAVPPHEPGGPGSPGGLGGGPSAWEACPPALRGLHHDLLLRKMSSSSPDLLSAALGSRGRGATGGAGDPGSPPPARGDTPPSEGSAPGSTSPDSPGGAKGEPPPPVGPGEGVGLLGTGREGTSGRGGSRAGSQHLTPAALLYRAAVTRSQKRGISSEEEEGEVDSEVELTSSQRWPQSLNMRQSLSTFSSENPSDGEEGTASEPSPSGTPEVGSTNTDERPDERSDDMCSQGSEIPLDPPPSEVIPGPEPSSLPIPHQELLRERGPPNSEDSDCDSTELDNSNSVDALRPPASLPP

[10] = target: Serine/threonine-protein kinase 17B (Homo sapiens) (UniProt O94768); conditions: Compound concentration 1000.0 nM
Sequence of Serine/threonine-protein kinase 17B (Homo sapiens) (O94768 whole entry): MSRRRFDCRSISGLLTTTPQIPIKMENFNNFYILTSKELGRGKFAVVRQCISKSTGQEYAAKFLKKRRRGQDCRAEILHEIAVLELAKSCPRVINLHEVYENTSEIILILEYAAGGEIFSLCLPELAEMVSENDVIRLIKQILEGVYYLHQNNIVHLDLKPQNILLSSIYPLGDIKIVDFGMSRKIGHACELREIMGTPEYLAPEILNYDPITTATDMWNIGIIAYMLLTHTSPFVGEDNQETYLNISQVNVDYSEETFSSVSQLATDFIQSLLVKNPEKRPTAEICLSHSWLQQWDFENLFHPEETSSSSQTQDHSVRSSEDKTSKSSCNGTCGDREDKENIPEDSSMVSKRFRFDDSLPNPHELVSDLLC

[11] = target: Epidermal growth factor receptor (Homo sapiens) (UniProt P00533); conditions: Compound concentration 1000.0 nM
[12] = test system: Epidermal growth factor receptor (Homo sapiens), P00533 [G719C]; conditions: Compound concentration 1000.0 nM
[13] = target: Ephrin type-A receptor 8 (Homo sapiens) (UniProt P29322); conditions: Compound concentration 1000.0 nM
[14] = target: Mitogen-activated protein kinase 7 (Homo sapiens) (UniProt Q13164); conditions: Compound concentration 1000.0 nM
[15] = target: Serine/threonine-protein kinase/endoribonuclease IRE1 (Homo sapiens) (UniProt O75460); conditions: Compound concentration 1000.0 nM
Sequence of Serine/threonine-protein kinase/endoribonuclease IRE1 (Homo sapiens) (O75460 19-977 limits assumed): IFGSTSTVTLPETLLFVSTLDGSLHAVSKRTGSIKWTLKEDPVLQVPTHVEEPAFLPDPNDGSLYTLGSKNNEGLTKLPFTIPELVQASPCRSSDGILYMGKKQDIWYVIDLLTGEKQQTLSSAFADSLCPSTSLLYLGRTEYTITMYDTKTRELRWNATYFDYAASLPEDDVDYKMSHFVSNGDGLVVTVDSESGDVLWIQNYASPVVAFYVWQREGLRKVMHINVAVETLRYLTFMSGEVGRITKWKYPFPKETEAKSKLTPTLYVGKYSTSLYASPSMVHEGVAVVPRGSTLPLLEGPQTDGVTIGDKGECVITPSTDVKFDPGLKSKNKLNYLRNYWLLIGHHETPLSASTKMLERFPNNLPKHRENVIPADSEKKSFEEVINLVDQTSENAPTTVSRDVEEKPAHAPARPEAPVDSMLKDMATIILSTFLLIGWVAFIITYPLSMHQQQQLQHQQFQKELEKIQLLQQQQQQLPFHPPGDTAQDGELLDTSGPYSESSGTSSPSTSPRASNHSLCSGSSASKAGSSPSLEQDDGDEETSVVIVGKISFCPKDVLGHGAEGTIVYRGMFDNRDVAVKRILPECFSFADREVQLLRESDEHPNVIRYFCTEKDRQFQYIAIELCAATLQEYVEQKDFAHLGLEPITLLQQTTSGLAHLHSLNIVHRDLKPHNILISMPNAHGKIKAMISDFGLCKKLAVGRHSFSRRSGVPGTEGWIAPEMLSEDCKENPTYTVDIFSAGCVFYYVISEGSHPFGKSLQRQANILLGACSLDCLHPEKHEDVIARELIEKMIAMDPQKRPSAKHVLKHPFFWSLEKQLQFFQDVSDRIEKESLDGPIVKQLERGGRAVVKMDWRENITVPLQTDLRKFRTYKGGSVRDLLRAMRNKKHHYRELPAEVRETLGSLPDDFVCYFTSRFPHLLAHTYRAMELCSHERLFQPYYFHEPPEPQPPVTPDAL

[16] = target: Fibroblast growth factor receptor 3 (Homo sapiens) (UniProt P22607); conditions: Compound concentration 1000.0 nM
[17] = test system: Fibroblast growth factor receptor 3 (Homo sapiens), P22607 [G697C]; conditions: Compound concentration 1000.0 nM
[18] = test system: Mast/stem cell growth factor receptor Kit (Homo sapiens), P10721 [D816H]; conditions: Compound concentration 1000.0 nM
[19] = test system: Mast/stem cell growth factor receptor Kit (Homo sapiens), P10721 [V559D]; conditions: Compound concentration 1000.0 nM
[20] = target: LIM domain kinase 1 (Homo sapiens) (UniProt P53667); conditions: Compound concentration 1000.0 nM
[21] = target: MAP kinase-activated protein kinase 5 (Homo sapiens) (UniProt Q8IW41); conditions: Compound concentration 1000.0 nM
[22] = target: Dual specificity mitogen-activated protein kinase kinase 3 (Homo sapiens) (UniProt P46734); conditions: Compound concentration 1000.0 nM
[23] = target: Dual specificity mitogen-activated protein kinase kinase 5 (Homo sapiens) (UniProt Q13163); conditions: Compound concentration 1000.0 nM
[24] = target: MAP kinase-interacting serine/threonine-protein kinase 1 (Homo sapiens) (UniProt Q9BUB5); conditions: Compound concentration 1000.0 nM
Sequence of MAP kinase-interacting serine/threonine-protein kinase 1 (Homo sapiens) (Q9BUB5 whole entry, looked up): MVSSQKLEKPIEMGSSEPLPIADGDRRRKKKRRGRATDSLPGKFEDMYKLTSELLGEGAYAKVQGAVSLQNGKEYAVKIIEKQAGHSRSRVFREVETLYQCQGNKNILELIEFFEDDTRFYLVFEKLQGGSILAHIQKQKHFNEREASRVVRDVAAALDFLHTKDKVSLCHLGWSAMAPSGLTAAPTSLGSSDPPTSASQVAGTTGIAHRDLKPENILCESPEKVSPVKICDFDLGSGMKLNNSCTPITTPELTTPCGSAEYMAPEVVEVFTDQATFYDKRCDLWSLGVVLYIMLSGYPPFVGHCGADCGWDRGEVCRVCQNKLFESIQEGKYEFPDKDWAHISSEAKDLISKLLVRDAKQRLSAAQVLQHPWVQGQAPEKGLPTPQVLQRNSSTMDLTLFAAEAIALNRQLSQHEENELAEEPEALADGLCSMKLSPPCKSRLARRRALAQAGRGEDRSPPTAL

[25] = target: Mitogen-activated protein kinase kinase kinase 9 (Homo sapiens) (UniProt P80192); conditions: Compound concentration 1000.0 nM
[26] = target: Serine/threonine-protein kinase Nek1 (Homo sapiens) (UniProt Q96PY6); conditions: Compound concentration 1000.0 nM
[27] = target: Mitogen-activated protein kinase kinase kinase 14 (Homo sapiens) (UniProt Q99558); conditions: Compound concentration 1000.0 nM
Sequence of Mitogen-activated protein kinase kinase kinase 14 (Homo sapiens) (Q99558 whole entry, looked up): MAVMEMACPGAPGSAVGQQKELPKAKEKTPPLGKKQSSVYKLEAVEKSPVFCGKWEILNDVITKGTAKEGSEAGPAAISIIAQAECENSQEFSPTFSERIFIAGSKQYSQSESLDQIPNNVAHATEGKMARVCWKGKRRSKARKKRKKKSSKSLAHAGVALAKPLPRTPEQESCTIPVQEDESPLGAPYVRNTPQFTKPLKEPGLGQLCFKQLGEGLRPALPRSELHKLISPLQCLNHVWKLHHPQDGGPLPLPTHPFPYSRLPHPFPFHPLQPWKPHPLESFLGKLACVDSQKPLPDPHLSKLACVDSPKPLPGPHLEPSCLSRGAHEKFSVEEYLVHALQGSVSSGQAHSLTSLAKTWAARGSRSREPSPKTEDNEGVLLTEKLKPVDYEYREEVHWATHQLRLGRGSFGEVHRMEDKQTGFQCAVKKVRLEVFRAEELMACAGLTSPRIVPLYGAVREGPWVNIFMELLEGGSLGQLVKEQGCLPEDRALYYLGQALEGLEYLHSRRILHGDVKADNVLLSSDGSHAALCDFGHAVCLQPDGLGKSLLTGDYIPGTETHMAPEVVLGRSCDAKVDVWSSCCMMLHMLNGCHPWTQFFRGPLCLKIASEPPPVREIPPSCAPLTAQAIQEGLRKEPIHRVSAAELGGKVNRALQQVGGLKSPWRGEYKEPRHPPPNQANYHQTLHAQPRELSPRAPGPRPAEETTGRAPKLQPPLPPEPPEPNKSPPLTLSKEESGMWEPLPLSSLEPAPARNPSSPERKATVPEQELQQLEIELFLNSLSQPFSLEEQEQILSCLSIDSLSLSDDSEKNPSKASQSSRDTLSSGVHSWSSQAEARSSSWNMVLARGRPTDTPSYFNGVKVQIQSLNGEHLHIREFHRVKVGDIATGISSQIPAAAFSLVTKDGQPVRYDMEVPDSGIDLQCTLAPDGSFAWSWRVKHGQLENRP

[28] = target: Serine/threonine-protein kinase OSR1 (Homo sapiens) (UniProt O95747); conditions: Compound concentration 1000.0 nM
[29] = target: Serine/threonine-protein kinase PAK 4 (Homo sapiens) (UniProt O96013); conditions: Compound concentration 1000.0 nM
[30] = target: Serine/threonine-protein kinase PAK 5 (Homo sapiens) (UniProt Q9P286); conditions: Compound concentration 1000.0 nM
[31] = target: Calcium-dependent protein kinase 1 (Plasmodium falciparum) (UniProt P62344); conditions: Compound concentration 1000.0 nM
Sequence of Calcium-dependent protein kinase 1 (Plasmodium falciparum) (P62344 2-524 limits assumed): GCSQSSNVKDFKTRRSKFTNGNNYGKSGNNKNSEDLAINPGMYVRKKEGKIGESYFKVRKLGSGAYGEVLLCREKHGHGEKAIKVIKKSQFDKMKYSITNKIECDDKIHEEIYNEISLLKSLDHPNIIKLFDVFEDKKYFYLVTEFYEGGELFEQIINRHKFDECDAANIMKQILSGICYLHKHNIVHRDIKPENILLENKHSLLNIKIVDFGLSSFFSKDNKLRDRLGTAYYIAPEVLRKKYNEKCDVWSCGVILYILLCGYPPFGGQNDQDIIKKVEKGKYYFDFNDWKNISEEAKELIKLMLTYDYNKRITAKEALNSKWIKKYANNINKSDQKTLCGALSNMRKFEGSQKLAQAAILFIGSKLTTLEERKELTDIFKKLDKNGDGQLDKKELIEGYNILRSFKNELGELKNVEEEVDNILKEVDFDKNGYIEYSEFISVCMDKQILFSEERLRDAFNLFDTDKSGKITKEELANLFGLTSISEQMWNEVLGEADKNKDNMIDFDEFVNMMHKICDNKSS

[32] = target: Phosphorylase b kinase regulatory subunit alpha, liver isoform (Homo sapiens) (UniProt P46019); conditions: Compound concentration 1000.0 nM
[33] = test system: Phosphatidylinositol 4,5-bisphosphate 3-kinase catalytic subunit alpha isoform (Homo sapiens), P42336 [E545A]; conditions: Compound concentration 1000.0 nM
[34] = target: Serine/threonine-protein kinase PLK2 (Homo sapiens) (UniProt Q9NYY3); conditions: Compound concentration 1000.0 nM
[35] = target: Proto-oncogene tyrosine-protein kinase ROS (Homo sapiens) (UniProt P08922); conditions: Compound concentration 1000.0 nM
[36] = target: Ribosomal protein S6 kinase alpha-5 (Homo sapiens) (UniProt O75582); conditions: Compound concentration 1000.0 nM
[37] = target: Ribosomal protein S6 kinase alpha-3 (Homo sapiens) (UniProt P51812); conditions: Compound concentration 1000.0 nM
Sequence of Ribosomal protein S6 kinase alpha-3 (Homo sapiens) (P51812 whole entry): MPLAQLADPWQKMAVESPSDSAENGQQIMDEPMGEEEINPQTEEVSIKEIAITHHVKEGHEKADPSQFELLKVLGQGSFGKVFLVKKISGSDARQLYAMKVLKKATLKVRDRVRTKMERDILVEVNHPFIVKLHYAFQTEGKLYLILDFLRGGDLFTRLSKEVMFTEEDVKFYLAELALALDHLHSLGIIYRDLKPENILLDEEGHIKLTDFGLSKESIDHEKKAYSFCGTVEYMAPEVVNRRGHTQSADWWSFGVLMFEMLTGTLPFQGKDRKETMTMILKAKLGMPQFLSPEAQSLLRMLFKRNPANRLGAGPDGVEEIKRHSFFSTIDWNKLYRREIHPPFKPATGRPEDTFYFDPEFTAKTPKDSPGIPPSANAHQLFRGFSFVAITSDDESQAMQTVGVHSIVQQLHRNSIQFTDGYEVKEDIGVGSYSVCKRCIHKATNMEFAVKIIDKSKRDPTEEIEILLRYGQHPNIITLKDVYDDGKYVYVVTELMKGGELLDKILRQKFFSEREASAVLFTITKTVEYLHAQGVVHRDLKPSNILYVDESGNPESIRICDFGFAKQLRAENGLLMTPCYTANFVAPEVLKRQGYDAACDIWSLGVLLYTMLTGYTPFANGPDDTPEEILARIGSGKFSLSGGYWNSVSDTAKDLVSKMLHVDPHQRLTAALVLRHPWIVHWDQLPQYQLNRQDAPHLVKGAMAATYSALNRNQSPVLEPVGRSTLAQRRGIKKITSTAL

[38] = target: Ribosomal protein S6 kinase alpha-3 (Homo sapiens) (UniProt P51812); conditions: Compound concentration 1000.0 nM; remark: listed apart in the source
[39] = target: Serine/threonine-protein kinase Sgk3 (Homo sapiens) (UniProt Q96BR1); conditions: Compound concentration 1000.0 nM
[40] = target: Tyrosine-protein kinase Srms (Homo sapiens) (UniProt Q9H3Y6); conditions: Compound concentration 1000.0 nM
[41] = target: Serine/threonine-protein kinase TNNI3K (Homo sapiens) (UniProt Q59H18); conditions: Compound concentration 1000.0 nM
[42] = target: Transient receptor potential cation channel subfamily M member 6 (Homo sapiens) (UniProt Q9BX84); conditions: Compound concentration 1000.0 nM
[43] = target: Tyrosine-protein kinase ZAP-70 (Homo sapiens) (UniProt P43403); conditions: Compound concentration 1000.0 nM
[44] = target: 5-hydroxytryptamine receptor 1B (Homo sapiens) (UniProt P28222); conditions: Compound concentration 10.0 uM
[45] = target: Kappa-type opioid receptor (Homo sapiens) (UniProt P41145); conditions: Compound concentration 10.0 uM

N#CC1(c2ccccn2)CCN(Cc2cc(C(=O)N3CCCC3)c(=O)n3ccccc23)CC1
inactive: residual activity [1] 100% | residual activity [2] 78% | residual activity [3] 95% | residual activity [4] 100% | residual activity [5] 100% | residual activity [6] 100% | residual activity [7] 100% | residual activity [8] 99% | residual activity [9] 100% | residual activity [10] 93% | residual activity [11] 100% | residual activity [12] 80% | residual activity [13] 100% | residual activity [14] 63% | residual activity [15] 100% | residual activity [16] 88% | residual activity [17] 98% | residual activity [18] 100% | residual activity [19] 100% | residual activity [20] 98% | residual activity [21] 100% | residual activity [22] 81% | residual activity [23] 100% | residual activity [24] 100% | residual activity [25] 72% | residual activity [26] 91% | residual activity [27] 100% | residual activity [28] 100% | residual activity [29] 100% | residual activity [30] 93% | residual activity [31] 84% | residual activity [32] 85% | residual activity [33] 78% | residual activity [34] 100% | residual activity [35] 97% | residual activity [36] 90% | residual activity [37] 60% | residual activity [38] 100% | residual activity [39] 82% | residual activity [40] 100% | residual activity [41] 89% | residual activity [42] 80% | residual activity [43] 100% | inhibition [44] 13% | inhibition [45] 46.8%

N#CC1(c2ccccn2)CCN(Cc2cc(C(=O)O)c(=O)n3ccccc23)CC1 [MSD-M1PAM]
inactive: residual activity [1] 91% | residual activity [2] 98% | residual activity [3] 67% | residual activity [4] 100% | residual activity [5] 100% | residual activity [6] 100% | residual activity [7] 100% | residual activity [8] 98% | residual activity [9] 93% | residual activity [10] 100% | residual activity [11] 83% | residual activity [12] 100% | residual activity [13] 100% | residual activity [14] 94% | residual activity [15] 81% | residual activity [16] 100% | residual activity [17] 100% | residual activity [18] 85% | residual activity [19] 100% | residual activity [20] 100% | residual activity [21] 56% | residual activity [22] 73% | residual activity [23] 62% | residual activity [24] 85% | residual activity [25] 92% | residual activity [26] 100% | residual activity [27] 73% | residual activity [28] 79% | residual activity [29] 100% | residual activity [30] 96% | residual activity [31] 88% | residual activity [32] 100% | residual activity [33] 100% | residual activity [34] 80% | residual activity [35] 90% | residual activity [36] 83% | residual activity [37] 81% | residual activity [38] 100% | residual activity [39] 74% | residual activity [40] 93% | residual activity [41] 100% | residual activity [42] 100% | residual activity [43] 100% | inhibition [44] 2.72% | inhibition [45] 47.3%
